The test system of assay [1] is cultured cortical neurons. Description: Oxygen glucose deprivation (OGD) neuronal cell death. The settings on record: FIG. 7. The format is cell-based. The protocol: The fraction of dead cells was determining by dividing the number of neurons expressing GFP which became stained with propidium iodide 20 h after OGD by the number of neurons expressing GFP at the beginning of the experiment. Data for each culture was obtained from counting cells in 3 high power microscope fields per experiment.

The target of assay [2] is T1, INADL d3 (Homo sapiens, UniProt Q8NI35).
T1 construct: made in house; host or cells: E. coli (DH5α, BL21 or JM109)
T1 sequence (Q8NI35 with tags, fused parts or gaps): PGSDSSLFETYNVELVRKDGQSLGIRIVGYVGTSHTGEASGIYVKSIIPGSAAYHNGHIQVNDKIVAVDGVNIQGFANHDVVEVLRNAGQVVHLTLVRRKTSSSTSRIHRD
Nature of the assay: G3 assay, binding of biotinylated peptide to GST-PDZ fusion. The settings on record: G3 titration. The procedure:
(§1) The G3 assay is identical to the G0 assay with the following exceptions. The peptides are typically present at 0.1 μM rather than 20 μM. The peptides are also pre-incubated with the HRP-streptavidin prior to adding to the assay plate. In the G0 assay, free peptide is incubated with the PDZ proteins prior to the addition of the HRP-streptavidin. Thus, for the G0 assay one can lose signal if the bound peptide dissociates from the PDZ protein prior to the addition of the HRP-streptavidin. In the G3 modified assay the HRP-streptavidin/peptide complex is added to the plate in one step, thus increasing the likelihood that all the bound peptide will be bound to HRP-streptavidin. The G3 modified assay increases the chance of observing weak interaactions.
(§2) Reagents and Supplies • Nunc MaxiSorp 96 well Immuno-plate, Nunc • PBS pH 7.4 (phosphate buffered saline, 8 g NaCl, 0.29 g KCl, 1.44 g Na2HPO4, 0.24 g KH2PO4, add H2O to 1 liter and pH 7.4; 0.2 μm filter) • Assay Buffer: 2% BSA in PBS (20 g of bovine serum albumin per liter PBS, fraction V, ICN Biomedicals, cat#IC15142983 • Goat anti-GST polyclonal Ab, stock 5 mg/ml, stored at 4° C., Amersham Pharmacia cat#27-4577-01 • Dilute 1:1000 in PBS, final concentration 5 μg/ml. • HRP-Streptavidin, 2.5 mg/2 ml stock stored at 4° C., Zymed cat#43-4323, dilute 1:2000 into Assay buffer, final concentration of 0.5 μg/ml • Wash Buffer, PBS • Biotinylated peptides (HPLC purified, stock solution stored in −20° C. freezer) • GST-PRISM proteins (stock stored at −80° C., after 1st thaw store in −10° C. freezer) • TMB (3,3′,5,5′, teramethylbensidine), tablets, Sigma cat.#T5525 • Per plate, dissolve 1 tablet in 1 ml DMSO, add 9 ml Citrate/Phosphate buffer pH 5.4 and 2 μL H2O2 • 0.18M H2SO4, Sigma cat.#S 1526 • 12-w multichannel pipettor & tips • 50 ml reagent reservoirs, Costar#4870 • 50, 15 ml polypropylene conical tubes • Costar Transtar 96 Costar #7605 • Transtar 96 Cartridge Costar #7610 • Molecular Devices microplate reader (450 & 650 nm filters) with SoftMax Pro software • When using reagents stored at or 4° C. or −20° C., remove & keep on ice
(§3) Protocol • 1. Coat plate with 100 μl of 5 μg/ml anti-GST, overnight at 4° C. • 2. Dump contents of plate & out tap dry on paper towels • 3. Block with 200 μl Assay Buffer for 2 hrs at room temperature • 4. Prepare proteins at 5 μg/ml in Assay Buffer • 5. Wash 3× with cold PBS (4° C.), avoiding letting the plates dry out • 6. Add proteins at 50 μl per well, incubate 1 to 2 hrs at 4° C. • 7. Prepare peptides to desired concentration in Assay Buffer • 8. Wash 3× with cold PBS (4° C.), avoiding letting the plates dry out • 9. Add HRP-Streptavidin/peptide complex [prepared by incubating for 20 minutes at room temperature HRP-Streptavidin (1:2000) with the desired biotin-peptide concentration for 20 minutes at room temperature] at 50 μl per well on ice • 10. Place at room temperature for exactly 30 minutes • 11. Promptly wash 5× with PBS at room temperature • 12. Add 100 μl/well TMB substrate (write time on plate) • 13. Incubate in dark at room temperature for a maximum of 30 minutes • 14. Read plate at 25 minutes (650 nm), optional • 15. Stop reaction with 100 μl of 0.18 M H2SO4, 30 minutes after adding TMB Take last reading at 450 nm soon after stopping reaction
(§4) The G3 assay was performed using 0.1 μM peptide representing 11 amino acids of Tat fused to the final 9 amino acids of TRPM7 ([…]; SEQ ID NO:258).
(§5) The G3 assay was performed on a subset of the PDZ domains as in Example II except that the concentration of peptide was 0.002 μM, […], 0.1 μM, 0.2 μM, 1 μM, and 2 μM.
(§6) to calculate the EC50 for the binding of the peptides to the PDZ domains.
(§7) FIGS. 10A and 10B show graphs of the titrations for the Peptide #1829 with ZO-1 d2 and for the Peptide #1839 with INADL d3.

For assay [3], the target named is T2, ZO-1 d2 (Homo sapiens, UniProt Q07157, DEL264-264).
T2 construct: made in house; host or cells: E. coli (DH5α, BL21 or JM109)
T2 sequence (Q07157 with tags, fused parts or gaps DEL264-264): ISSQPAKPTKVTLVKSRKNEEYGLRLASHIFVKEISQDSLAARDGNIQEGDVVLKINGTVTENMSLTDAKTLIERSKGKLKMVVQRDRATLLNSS
Described as above. The settings on record: G3 titration. The procedure:
as §1, §2, §3, §4, §5, §6, §7

For assay [4], the target named is T1, INADL d3. Nature of the assay: G assays, titrations or binding assays of peptides. The settings on record: peptide demonstrated to bind INADL d3 in G assays.
Description: (§8) In one aspect, the invention provides an assay in which a GST/PDZ fusion protein is immobilized on a surface (G assay). […] In a preferred embodiment, the assay is carried out as follows:
(§9) (1) A PDZ-domain polypeptide is bound to a surface, e.g. a protein binding surface. In a preferred embodiment, a GST/PDZ fusion protein containing one or more PDZ domains is bound to a polystyrene 96-well plate. […] In one embodiment, the GST/PDZ fusion protein is bound via an anti-GST antibody that is coated onto the 96-well plate. Adequate binding to the plate can be achieved when: • a. 100 μl per well of 5 μg/ml goat anti-GST polyclonal antibody (Pierce) in PBS is added to a polystyrene 96-well plate (e.g., Nunc Polysorp) at 4° C. for 12 hours. • b. The plate is blocked by addition of 200 μl per well of PBS/BSA for 2 hours at 4° C. • c. The plate is washed 3 times with PBS. • d. 50 μl per well of 5 μg/ml GST/PDZ fusion protein) or, as a negative control, GST polypeptide alone (i.e. not a fusion protein) in PBS/BSA is added to the plate for 2 hours at 4° C. • e. the plate is again washed 3 times with PBS.
(§10) (2) Biotinylated PL peptides are allowed to react with the surface by addition of 50 μl per well of 20 μM solution of the biotinylated peptide in PBS/BSA for 10 minutes at 4° C., followed by an additional 20 minute incubation at 25° C. The plate is washed 3 times with ice cold PBS.
(§11) (3) The binding of the biotinylated peptide to the GST/PDZ fusion protein surface can be detected using a variety of methods and detectors known to one of skill in the art. In one embodiment, 100 μl per well of 0.5 μg/ml streptavidin-horseradish peroxidase (HRP) conjugate dissolved in BSA/PBS is added and allowed to react for 20 minutes at 4° C. The plate is then washed 5 times with 50 mM Tris pH 8.0 containing 0.2% Tween 20, and developed by addition of 100 μl per well of HRP-substrate solution (TMB, Dako) for 20 minutes at room temperature (RT). The reaction of the HRP and its substrate is terminated by addition of 100 μl per well of 1 M sulfuric acid, and the optical density (O.D.) of each well of the plate is read at 450 um.
(§12) (4) Specific binding of a PL peptide and a PDZ domain polypeptide is determined by comparing the signal from the well(s) in which the PL peptide and PDZ domain polypeptide are combined, with the background signal(s). […] Typically a specific or selective reaction will be at least twice background signal, more typically more than 5 times background, and most typically 10 or more times the background signal. […] Correspondingly, a statistical test (e.g. a T-test) comparing repeated measurements of the signal with repeated measurements of the background will result in a p-value <0.05, more typically a p-value <0.01, and most typically a p-value <0.001 or less. As noted, in an embodiment of the G assay, the signal from binding of a given PL peptide to immobilized (surface bound) GST polypeptide alone is one suitable negative control (sometimes referred to as B1). Because all measurement are done in multiples (i.e. at least duplicate) the arithmetic mean (or, equivalently, average.) of several measurements is used in determining the binding, and the standard error of the mean is used in determining the probable error in the measurement of the binding. The standard error of the mean of N measurements equals the square root of the following: the sum of the squares of the difference between each measurement and the mean, divided by the product of (N) and (N−1). Thus, in one embodiment, specific binding of the PDZ protein to the platebound peptide is determined by comparing the mean signal (“mean S”) and standard error of the signal (“SE”) for a particular PL-PDZ combination with the mean B1.
Another assay addresses T3, RIM2 d1 (Homo sapiens, UniProt Q9UQ26).
T3 construct: made in house; host or cells: E. coli (DH5α, BL21 or JM109)
T3 sequence (Q9UQ26 632-757): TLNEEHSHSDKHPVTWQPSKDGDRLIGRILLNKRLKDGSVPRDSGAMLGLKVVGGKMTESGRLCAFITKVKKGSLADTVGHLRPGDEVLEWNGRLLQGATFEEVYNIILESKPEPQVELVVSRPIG
Description: G assays, titrations or binding assays of peptides. The settings on record: peptide demonstrated to bind RIM2 d1 in G assays.

The target in assay [5] is T2, ZO-1 d2. Nature of the assay: G assays, titrations or binding assays of peptides. The settings on record: peptide demonstrated to bind ZO-1 d2 in G assays.
Description: as §8, §9, §10, §11, §12
The next assay relates to cultured neurons. Description: Neuronal survival 20 h after 1 h NMDA challenge. The assay is classed as cell-based. The settings on record: peptide applied immediately after the NMDA challenge; FIG. 14. The procedure: The sequence of Tat-9cTRPM7 is: [[…] or [[…]-[…]] (SEQ ID NO:258), whereby the first 11 residues correspond to the cell membrane transduction domain of the human immunodeficiency virus type 1 (HIV-1) Tat protein and the last 9 residues correspond to the last 9 amino acids of the C-terminus of human TRPM7 (accession Q96QT4). […] (A) Neuronal survival at 20 h in the indicated concentrations of Tat-9cTRPM7 in the absence of excitotoxic challenge. (B) Neuronal survival 20 h after challenging the cultures for 1 h with the indicated concentration of NMDA. Tat-9cTRPM7 was applied immediately after the NMDA challenge.
The sequence of Tat-9cTRPM7 is: [[…]-[…]; SEQ ID NO:258], whereby the first 11 residues correspond to the cell-membrane transduction domain of the human immunodeficiency virus type 1 (HIV-1) Tat protein and the last 9 residues correspond to the last 9 amino acids of the C-terminus of human TRPM7 (accession Q96QT4). (A) Neuronal survival at 20 h in the indicated concentrations of Tat-9cTRPM7 in the absence of excitotoxic challenge. (B) Neuronal survival 20 h after challenging the cultures for 1 h with the indicated concentration of NMDA. Tat-9cTRPM7 was applied immediately after the NMDA challenge.

Residues, ends and D or L forms follow the SMILES beside them. *: point of attachment. Biotin = O=C1N[C@H]2[C@H](CS[C@H]2CCCCC(=O)*)N1

Description for RIM2 d1: as §8, §9, §10, §11, §12

For the compound `[Gd+3]` [Gd^3+], in assay [1], the “Survival of neurons in prolonged OGD” value was “can permit survival of neurons destined to die from prolonged OGD”.

In the case of `CC[C@H](C)[C@H](NC(=O)[C@@H](NC(=O)[C@H](CCCNC(=N)N)NC(=O)[C@H](CC(=O)O)NC(=O)[C@H](CO)NC(=O)[C@H](CCCNC(=N)N)NC(=O)[C@H](C)NC(=O)[C@H](CCCNC(=N)N)NC(=O)[C@H](CCCNC(=N)N)NC(=O)[C@H](CCCNC(=N)N)NC(=O)[C@H](CCC(N)=O)NC(=O)[C@H](CCCNC(=N)N)NC(=O)[C@H](CCCNC(=N)N)NC(=O)[C@H](CCCCN)NC(=O)[C@H](CCCCN)NC(=O)[C@H](CCCNC(=N)N)NC(=O)CNC(=O)[C@H](Cc1ccc(O)cc1)NC(=O)CCCC[C@@H]1SC[C@@H]2NC(=O)N[C@@H]21)[C@@H](C)O)C(=O)N[C@@H](Cc1c[nH]c2ccccc12)C(=O)N[C@@H](C)C(=O)O` [Peptide 1829] (Biotin-YGRKKRRQRRRARSDRTIWA-OH; C-terminus assumed), the entries for the “ODmax (450 nm)” value at INADL d3 [2] and at ZO-1 d2 [3] were 1.40 and 2.90, respectively. In addition, the POZ domain bound entry at INADL d3 [4] was “INADL D3”; at RIM2 d1 it was “RIM2 D1”; on ZO-1 d2 [5] it was “ZO-1 D2”.

For the compound `C[C@H](NC(=O)[C@H](Cc1c[nH]c2ccccc12)NC(=O)[C@H](Cc1ccc(O)cc1)NC(=O)[C@H](CCCCN)NC(=O)[C@H](CCCNC(=N)N)NC(=O)[C@H](CC(=O)O)NC(=O)[C@@H](NC(=O)[C@H](CCCNC(=N)N)NC(=O)[C@H](CO)NC(=O)[C@H](CCCNC(=N)N)NC(=O)[C@H](CCCNC(=N)N)NC(=O)[C@H](CCCNC(=N)N)NC(=O)[C@H](CCC(N)=O)NC(=O)[C@H](CCCNC(=N)N)NC(=O)[C@H](CCCNC(=N)N)NC(=O)[C@H](CCCCN)NC(=O)[C@H](CCCCN)NC(=O)[C@H](CCCNC(=N)N)NC(=O)CNC(=O)[C@H](Cc1ccc(O)cc1)NC(=O)CCCC[C@@H]1SC[C@@H]2NC(=O)N[C@@H]21)[C@@H](C)O)C(=O)O` [Peptide 1832] (Biotin-YGRKKRRQRRRSRTDRKYWA-OH; C-terminus assumed), the “ODmax (450 nm)” value at INADL d3 [2] is 0.60; on ZO-1 d2 [3], 2.10. Also, the results for the POZ domain bound entry on INADL d3 [4], on RIM2 d1 and on ZO-1 d2 [5] were “INADL D3”, “RIM2 D1” and “ZO-1 D2”, respectively.

With `CC[C@H](C)[C@H](NC(=O)[C@H](CCC(N)=O)NC(=O)[C@H](Cc1ccc(O)cc1)NC(=O)[C@H](CCCCN)NC(=O)[C@H](CCCNC(=N)N)NC(=O)[C@H](CC(=O)O)NC(=O)[C@@H](NC(=O)[C@H](CCCNC(=N)N)NC(=O)[C@H](CO)NC(=O)[C@H](CCCNC(=N)N)NC(=O)[C@H](CCCNC(=N)N)NC(=O)[C@H](CCCNC(=N)N)NC(=O)[C@H](CCC(N)=O)NC(=O)[C@H](CCCNC(=N)N)NC(=O)[C@H](CCCNC(=N)N)NC(=O)[C@H](CCCCN)NC(=O)[C@H](CCCCN)NC(=O)[C@H](CCCNC(=N)N)NC(=O)CNC(=O)[C@H](Cc1ccc(O)cc1)NC(=O)CCCC[C@@H]1SC[C@@H]2NC(=O)N[C@@H]21)[C@@H](C)O)C(=O)O` [Peptide 1839] (Biotin-YGRKKRRQRRRSRTDRKYQI-OH; C-terminus assumed), the “ODmax (450 nm)” value at INADL d3 [2] was determined as 1.60; on ZO-1 d2 [3], 2.50. Besides, the POZ domain bound entry on INADL d3 [4] is on record as “INADL D3”; on RIM2 d1, “RIM2 D1”.

Consider `CC(C)[C@H](NC(=O)[C@H](Cc1ccc(O)cc1)NC(=O)[C@H](Cc1ccc(O)cc1)NC(=O)[C@H](CCC(=O)O)NC(=O)[C@H](CCCCN)NC(=O)[C@H](CC(=O)O)NC(=O)[C@H](CCCCN)NC(=O)[C@H](CC(N)=O)NC(=O)[C@H](CCCCN)NC(=O)[C@H](CCCNC(=N)N)NC(=O)[C@H](CCCNC(=N)N)NC(=O)[C@H](CCCNC(=N)N)NC(=O)[C@H](CCC(N)=O)NC(=O)[C@H](CCCNC(=N)N)NC(=O)[C@H](CCCNC(=N)N)NC(=O)[C@H](CCCCN)NC(=O)[C@H](CCCCN)NC(=O)[C@H](CCCNC(=N)N)NC(=O)CNC(=O)[C@H](Cc1ccc(O)cc1)NC(=O)CCCC[C@@H]1SC[C@@H]2NC(=O)N[C@@H]21)C(=O)O` [Peptide 1852] (Biotin-YGRKKRRQRRRKNKDKEYYV-OH; C-terminus assumed), for which the “ODmax (450 nm)” value is given as 2.40 on INADL d3 [2] and 2.60 on ZO-1 d2 [3]. The values for the POZ domain bound entry at RIM2 d1 and on ZO-1 d2 [5] were “RIM2 D1” and “ZO-1 D2”, respectively.

As for “YGRKKRRQRRR-STNSVRLML (YGRKKRRQRRRSTNSVRLML) [Tat-9cTRPM7, HIV-1 Tat transduction domain fused to last 9 amino acids of human TRPM7]”, the “Neuronal survival 20 h after challenging the cultures for 1 h with NMDA” value in the assay with cultured neurons is recorded as “enhanced survival when challenged with NMDA”.
